# “And” between values parts separate entries of the source, which are not always exact repeats. Equal entries are not always repeated.
# Key:
# [1] = tested on: HIV-RNA in supernatant of HIV-1 infected CEM/0 T-cells; assay: HIV-1 quantitative RNA assay (HIV-1 Monitor) in supernatants of CEM/0 T-cells; format: cell-based; set-up: inhibition of HIV-RNA in the supernatants in comparison to untreated control / % OF CONTROL / % control: concentration or dose not given beside the values
# Description: It should be noted that “PEG” in Table 3 represents PEG-ASNase.
# Materials and Methods: The cell line used for these studies is CEM/0, a human T-cell leukemic cell line. PEG-ASNase (ONCASPAR) is provided by Rhone-Poulenc Rorer. Saquinavin is commercially available. AZT is purchased from Sigma. MISID, a ribonucleotide reductase inhibitor, is as described in Nandy P, Lien E J, Avramis V I, Med. Chem. Res. 1995, 5:664-679. RPMI-1640 media (Irvine Scientific, Irvine, Calif.), is enriched with 10% Fetal Calf Serum (Gemini Biosource, Calabasas, Calif.), 5% 1M Hepes Buffer solution and 5% Non-essential amino acids (Irvine Scientific, Irvine, Calif.). The drug concentrations used are as follows:
# Briefly, 3×10^6 cells/ml are stimulated with PHA+ media for 48 hours at 37° C. with 5% CO2. Also, the same number of cells are incubated in PHA free media for 48 hours to serve as the negative control. At this point the cells are inoculated with the HIV-1 virus as per standard protocol. Note that in this experiment, the HIV containing supernatant from the PHA-stimulated healthy human peripheral mononuclear cells (PBMC) is not removed from the PHA-stimulated CEM/0 cell culture. […] These virus particles are continuously released by already infected T-cells and/or lymph nodes of patients.
# The experimental drugs are added to the cells in the appropriate concentrations at the same time as viral inoculation or 90 minutes after the viral incubation, a time sufficient for the T-cells to be infected and start producing new HIV-1 virus particles. The control cells are resuspended in drug-free media for the duration of the exposure which lasted seven days. Aliquots of media from the control flasks only are obtained on day 5 post Rx. At day seven, three 1 ml each, aliquots of media are removed from the flasks and stored under liquid nitrogen. In addition, the remaining cells are split into three and then pelleted and stored at −80° C. Supernatant specimens are obtained form these T-cell cultures and are frozen at −80° C. The samples produced from this experiment are itemized. The cell pellets of the cellular cultures (see Experiment 9) from the 90 minute viral incubation flasks are assayed for HIV-RNA quantitative assay using a kit for the assay, non-radioactive. […] The standard curve is determined and the HIV-RNA levels for the experimental samples are calculated and reported previously.
# This experiment is carried out using a similar procedure, and the same concentrations of materials as in Experiment 10, however the exposure of HIV-RNA in T-cell supernatants to a combination of PEG-ASNase, Saquinavir, AZT and 3TC is measured. It should be noted that “PEG” in Table 10 represents PEG-ASNase.
# [2] = tested on: HIV-RT levels of HIV-1 infected CEM/0 cell pellets; assay: HIV-RT ELISA (Reverse Transcriptase Assay, non-radioactive) in cell pellets of HIV-1 infected CEM/0 T-cells; format: cell-based; settings: Table 9
# Description: The following is a general procedure for the HIV-reverse transcriptase assay:
# The cell line used for these studies is CCRF/CEM/O, a human T-leukemic cell line. PEG-ASNase (ONCASPAR) is provided by Rhone-Poulenc Rorer. Saquinavir is commercially available. RPMI-1640 media (Irvine Scientific, Irvine, Calif.) is enriched with 10% Fetal Calf Serum (Gemini Biosource, Calabasas, Calif.), 5% 1M Hepes Buffer solution and 5% Non-essential amino acids (Irvine Scientific, Irvine, Calif.). The drug concentrations used are as follows:
# Briefly, 2×10^6 cells/ml are stimulated with PHA+ media for 48 hours at 37° C. with 5% CO2. Also, the same number of cells are incubated in PHA(phytohemagglutinin) free media for 48 hours to serve as the negative control. At this point the cells are inoculated with the HIV-1 virus as per standard protocol. PEG-ASNase and/or Saquinavir are added to the cells in the appropriate concentrations (see above). The control cells are resuspended in drug-free media for the duration of the exposure which lasted seven days. At day five, two 1 ml aliquots of media are removed from the flasks and stored under liquid nitrogen. At day seven, two more 1 ml aliquots of media are removed from the flasks and stored under liquid nitrogen. In addition, the remaining cells are pelleted and stored at −80° C.
# The samples produced from this experiment are itemized and then assayed for HIV-RT using the Reverse Transcriptase Assay, non-radioactive (Boehringer Mannheim). The standard curve is determined and the HIV-RT levels for the experimental samples are calculated.
# This experiment is carried out using a similar procedure, and the same concentrations of materials as in Experiment 7, however the exposure of the HIV virus in T-cell pellets to PEG-ASNase and Saquinavir alone, and in combination is measured. It should be noted that “PEG” in Table 2a represents PEG-ASNase. […]
smiles,measurement,setting,value
"Nc1ccn([C@@H]2CS[C@H](CO)O2)c(=O)n1 [3TC, lamivudine]",MEAN,[1]; Table 10,1752 copies/mL
same,N*,"[1]; Table 10, per specimen, day 7 post Rx, PEG 0.400 IU/ml, SAQ 25 uM, AZT 1 uM, 3TC 1 uM, combinations PEG 0.233 IU/ml + SAQ 14.52 uM",1700 copies/mL and 1836 copies/mL and 1719 copies/mL
same,% OF CONTROL,[1]; Table 10 and Experiment 11,39.58%
same,MEAN X3 (HIV-RT),[2],0.004 ng/well

# Source: US6689762B1, “Composition and methods for treatment of HIV infection” (Enzon Pharmaceuticals, Inc., priority 1998, dated 2004)
